Results taken from patent publication US10390536B2, “Methods, compounds and compositions for repelling insects and/or arachnids” (National Center for Scientific Research “Demokritos”, priority 2013, dated 2019).
Where two headings read alike, the source gives them in different places.

What was measured:
[1] = tested on: Anopheles gambiae (Giles) ss strain 16CSS female mosquitoes; experiment: warm body repellence assay (mosquito landings); assay type: in vivo; settings: for repellent activity in the warm body assay (in words): candidate compounds, initially 1.0-5.0 μg/cm^2 (about 5-31.5 nmole/cm^2); for median repellency (%) at 20 nmol/cm2: read-out: Median Repellency (%)
Method: To test the behavior of female mosquitoes to an essential oil containing OBP binding components, a previously described repellence assay [Kröber et al. (2010). An In Vitro Assay for Testing Mosquito Repellents Employing a Warm Body and Carbon Dioxide as a Behavioral Activator. Journal of the American Mosquito Control Association 26(4) 381-386] was conducted that measures the number of mosquito landings on a warm surface onto which an essential oil containing at least one candidate compound was applied.
To conduct a repellency assay, a selected essential oil or ethanol negative control was applied to a warm body at a dose of about 3.8 μg/cm^2 and allowed to dry for 40 seconds in order to allow evaporation of the solvent before introduction into the test cage with mosquitoes. As positive control for repellence, DEET dissolved in ethanol was applied to the warm body at the same dose. The treated warm body in conjunction with a pulse of carbon dioxide was introduced into the test cage containing fifty Anopheles gambiae (Giles) ss strain 16CSS female mosquitoes that were 4-11 days old and the number of mosquito landings on the warm body occurring within a 2-minute period was counted. Each candidate compound was tested in five different cages (i.e., 250 female mosquitoes) in a randomized design, and the ethanol control and up to four candidate compounds were tested in each cage. Raw data on numbers of landings by mosquitoes were analyzed using a linear mixed model accounting for treatment, experimental day, the individual cage, the number of females per cage and the level of the carbon dioxide pulse in ppm using R (R Development Core Team, 2010) and the packages LME4 (Bates and Maechler, Ime4: Linear mixed-effects models using {S4} classes.{R} package version 0.999375-32, 2009) and NLME (Pinheiro et al, nlme: Linear and Nonlinear Mixed Effects Models, 2010; the R Development Core Team, R: A Language and Environment for Statistical Computing, 2010). Repellent values were calculated from counted landings on treatments versus the overall landings on pooled controls.
To test the behavior of female mosquitoes to a candidate compound identified in Example 5, behavioral assays were made using the identified compounds. The repellent assay was performed as described in Example 3, except that candidate compounds were dissolved in ethanol and tested initially at doses between 1.0 and 5.0 μg/cm^2 (about 5-31.5 nmole/cm^2) and, whenever necessary, at lower and/or higher doses as well. Besides the compounds identified in Example 5, compounds related to these were also tested including ethyl-cinnamate and butyl-cinnamate (Table 4).
To test the behavior of female mosquitoes to various combinations of candidate compounds identified in Example 6, repellence assays were made as in Example 3. These repellent assays were made to compare the effectiveness of the strongest repellent compounds identified in Example 6, including, without limitation, carvacrol, ethyl cinnamate, butyl cinnamate, and cumin alcohol with that of DEET.
The doses tested were 2, 4, 6 10 and 20 nmol/cm^2 for the single compounds. The binary 50:50 mixtures were tested at 2, 6, 10 and 20 nmol/cm^2, with each compound making up half the amount tested, so that, for example, the 2 nmol/cm^2 concentration in column A+B represents 1 nmol/cm^2 of A and 1 nmol/cm^2 of B in a binary mixture. DEET was also tested at 25 nmol (top response) and carvacrol was tested at the additional dose of 2.5 nmol (second from left within its column). As an indication, DEET at 20 nmol/cm^2=3.8 μg/cm^2. Mosquitoes were activated using a puff of CO2 from a gas tank upon introduction of the warm body into the test cage containing 50±5 A. gambiae females and mosquito landings were counted for 2 minutes. Each treatment (dose) was tested using five test cages, i.e. on a total of 250 female A. gambiae. […]

[2] = tested on: female A. gambiae antennae; experiment: GC-coupled electroantennogram (GC-EAG) recording; set-up: species or system Anopheles gambiae; settings: compounds eluting from GC of essential oils
Description: Electrophysiological recordings from whole mosquito antenna: Coupling EAG recordings from an A. gambiae antenna to the effluent of a high-resolution gas chromatographic (GC) column permitted the determination of the elution profiles of biologically active components of essential oils showing repellence. Recordings were made from to 4-9 day-old female mosquitoes. The head was excised at the occipital opening and placed on the reference glass electrode containing Hayes mosquito Ringer [Hayes (1953). Determination of a physiological saline for Aedes aegypti (L.). J Econ Entomol 46: 624-627] mounted in a humidified air-stream (90-98% RH; Guerin and Visser (1980). Electroantennogram Responses of the Carrot Fly, Psila rosae, to Volatile Plant Components. Physiological Entomology 5(2): 111-119] and its antenna exposed to compounds eluting from the GC column (Biessamann et al. (2010). The Anopheles gambiae odorant binding protein 1 (AgamOBP1) mediates indole recognition in the antennae of female mosquitoes. PLoS One 5(3): e9471]. The EAG response was recorded via a glass electrode filled with Kaissling sensillum lymph Ringer [Kaissling (1995). Single unit and electroantennogram recordings in insect olfactory organs. In Experimental Cell Biology of Taste and Olfaction. Current Techniques and Protocols, Spielman AlaB, J. G. (ed), 361-386. Boca Raton, Fla.: CRC Press] brought into contact with the terminal antennal segment whose tip was cut off. Only antennae showing an EAG response at least double the noise level to a 1 ml puff of air over 1 μg geranylacetone in a 5 ml stimulus syringe were used for recording EAG responses to the essential oils.
To conduct a GC-EAG analysis, about 2 μg of an essential oil was injected in 1-3 μL of dichloromethane (DCM) onto an apolar capillary column (95% dimethyl polysiloxan with 5% diphenyl polysiloxan, 15 m long, 0.25 mm i.d., 0.10 μm film thickness; BGB Analytik, Switzerland) installed in a 5300 Carlo Erba Instruments chromatograph. Hydrogen was used as carrier gas with the oven held at 40° C. for 3 minutes then heated up 25° C./min to 230° C. and held at the final temperature for 15 min. The column effluent was split (50:50) between the flame ionization detector (FID) of the chromatograph and the mosquito antennal preparation. The EAG signal was fed into an AC/DC amplifier (×100) via a high impedance preamplifier (×10), recorded on the hard disk of a PC via a 16-bit analogue-digital IDAC4 interface (Syntech, Netherlands) and monitored simultaneously with an oscilloscope (Tektronix 5103, USA). Kovats retention indices (KIs) were calculated for the EAG-active compounds present in the extracts and fractions. FIG. 1 illustrates the results obtained using the GC-EAG analysis. […]

[3] = tested on: sand fly Lutzomyia longipalpis; experiment: warm body repellence assay with sand flies; assay type: in vivo; settings: for Median of landings: 2 minutes, control 48
Method: To test the effects of repellent compounds or compositions disclosed herein on other blood-feeding arthropods, a warm body repellence assay (Krober et. al. (2010). An In Vitro Assay for Testing Mosquito Repellents Employing a Warm Body and Carbon Dioxide as a Behavioral Activator. Journal of the American Mosquito Control Association 26(4): 381-386] was conducted using the sand fly Lutzomyia longipalpis (Diptera: Psychodidae), the principal vector of Leishmania (or leismaniasis) in the Americas.
[…] Fifty L. longipalpis sandflies (male:female ratio 1:1) of 3-7 days old were tested during the scotophase under conditions described for A. gambiae in Example 6. The test cages were lined with filter paper. Reduction in the number of landings by L. longipalpis sand fly females on a warm body treated with different test products compared to the control with solvent (ethanol p.a.) alone was used to evaluate repellence. Tests were conducted in complete darkness using IR LEDs to illuminate the warm body. Landings counted during 2 minutes were normalized by experimental day, cage, and number of females by a mixed linear model before testing for differences.

[4] = Anopheles gambiae, 2 min, 20 nmole per cm^2

| Compound | repellent activity in the warm body assay (in words) [1] | EAG response of antenna [2] | also measured |
| --- | --- | --- | --- |
| C=C(C)C1CC=C(C)C(=O)C1 (single isomer, unassigned; (+)) [(+) carvone, carvone] | only weak or no repellent activity at all |  |  |
| C=C(C)[C@H]1CC=C(C)CC1 [(+) limonene, limonene] | only weak or no repellent activity at all |  |  |
| C=C(C)[C@@H]1CC=C(C)C(=O)C1 [(−) carvone, carvone] | only weak or no repellent activity at all |  |  |
| CC(C)c1ccc(C=O)cc1 [cumin aldehyde] | only weak or no repellent activity at all | capable of triggering EAG responses | median repellency (%) at 20 nmol/cm2 ([1]; Anopheles gambiae, 2 min): 13.5% |
| CC(C)c1ccc(C(=O)O)cc1 [cuminic acid] | activity comparable to DEET | capable of triggering EAG responses | Median of landings ([3]; 20 nmol/cm^2): 16; Median of landings ([3]; 200 nmol/cm^2): 13; repellence of sand flies from the warm body (in words) ([3]; 20 and 200 nmol/cm^2): as effective as DEET at 20 nmol/cm^2; median repellency (%) at 20 nmol/cm2 [1, 4]: 74.2% |
| C=CC(C)(O)CCC=C(C)C (centres unmarked) [linalool] | properties suggesting attractant activity | capable of triggering EAG responses |  |
| COC(=O)C=Cc1ccccc1 [methyl-trans-cinnamate, methyl 3-phenylprop-2-enoate] | only weak or no repellent activity at all | capable of triggering EAG responses | median repellency (%) at 20 nmol/cm2 [1, 4]: 14% |
| Cc1ccc(C(C)C)cc1 [p-cymene] | properties suggesting attractant activity | capable of triggering EAG responses |  |
| CC1=C(C=O)C(C)(C)CC=C1 [safranal] | only weak or no repellent activity at all | capable of triggering EAG responses |  |
| Cc1ccc(C(C)C)c(O)c1 [thymol, 2-Isopropyl-5-methylphenol] | activity comparable to DEET |  | median repellency (%) at 31.5 nmol/cm2 ([1]; Anopheles gambiae, 2 min, 31.5 nmole per cm^2): 89.7% |
| CC1=CCC2CC1C2(C)C (stereo not drawn) [α-pinene] | only weak or no repellent activity at all | capable of triggering EAG responses |  |
| C=C1CC/C=C(\C)CC[C@@H]2[C@@H]1CC2(C)C [β-caryophyllene] | only weak or no repellent activity at all | capable of triggering EAG responses |  |
| C=C1CCC2CC1C2(C)C (stereo not drawn) [β-pinene] | only weak or no repellent activity at all | capable of triggering EAG responses |  |
| CC1=CCC(C(C)C)=CC1 [γ-terpinene] | only weak or no repellent activity at all |  |  |
| CC(C)=C1CCC(C)(O)CC1 (centres unmarked) [γ-terpineol] |  | capable of triggering EAG responses |  |
| limonene [(−) limonene] | only weak or no repellent activity at all |  |  |
